Data on 1 molecule can be found in US9790218B2, “Small molecule activators of calcium-activated chloride channels and methods of use” (The Regents of the University of California, priority 2011, dated 2017).

Structures are written as SMILES.

The subject of assay [1] is CF human bronchial epithelial (CF HBE) cells. Kind of assay: Short-circuit current in CF HBE cells. The format is cell-based. How it is done:
FIG. 5A-B. Airway epithelial chloride secretion. FIG. 5A. Short-circuit current in CF HBE cells. Eact and UTP (100 μM) were added in control (left) and IL-4 (10 ng/ml, 24 h, middle) treated CF HBE cells. (right) Summary of Eact-induced, T16Ainh-A01-sensitive peak current (mean±S.E., n=6-8, * P<0.05). ENaC was inhibited by 10 μM amiloride. FIG. 5B. Eact (10 μM) and UTP (100 μM) induced CaCC Cl^− current measured in primary cultures of non-CF human tracheal gland (HTG) serous cells. (left and gmiddle) TMEM16A, CFTR and ENaC were inhibited by pretreatment with T16Ainh-A01, CFTRinh-172 and amiloride, respectively. Inset: TMEM16A immunoblot in whole cell homogenates of CF HBE and HTG cells. (right) Summary of UTP and Eact-induced peak current in the presence and absence of T16Ainh-A01 (mean±S.E., n=3, * P<0.05).
Tracheal and bronchial tissues were obtained from non-CF and CF patients following lung transplantation or from postmortem examinations performed within 24 h after death. […]
Snapwell inserts containing TMEM16A-expressing FRT, HBE, CF HBE or HTG cells were mounted in Ussing chambers (Physiologic Instruments, San Diego, Calif.). […] Apical membrane current (for FRT cells) and short-circuit current were measured using an EVC4000 Multi-Channel V/I Clamp (World Precision Instruments, Sarasota, Fla.) and recorded using PowerLab/8sp (AD Instruments, Castle Hill, Australia).

The subject of assay [2] is mouse ileal smooth muscle. Kind of assay: Intestinal smooth muscle contraction, ex vivo mouse ileal segments. The note with it: T16Ainh-A01 10 μM. As for the experimental part:
FIG. 8A-C. Intestinal smooth muscle contraction. FIG. 8A. Representative traces from mouse ileal segments showing effects of T16Ainh-A01 (10 μM), carbachol (CCh, 1 μM) and Eact (10 μM). FIG. 8B. Effect of CCh (1 μM) and Eact (10 μM) following atropine (1 μM). FIG. 8C. Summary of contraction frequency (left), and resting and maximum tone (right) (mean±S.E., n=4-7, * P<0.05).
Wild type CD1 mice (age 8-10 weeks) were killed by avertin overdose (200 mg/kg). The ileum removed and washed with ice-cold HCO3^−-buffered solution. The ends of the ileal segments were tied with silk thread and connected to a force transducer. Beal segments were equilibrated for 60 min with a resting force of ˜1 mN, with changes of the bathing solution every 15 min. Tension was monitored continuously with a fixed-range precision force transducer (TSD, 125 C; Biopac, Goleta, Calif.) connected to a differential amplifier (DA 100B; Biopac). Data were recorded using MP100, Biopac digital acquisition system and analyzed using Acknowledge 3.5.7 software.
TMEM16A in expressed in the interstitial cells of Cajal, the pacemaker cells that control smooth muscle contraction dynamics in stomach and intestine (Huang et al., supra; Gomez-Pinilla et al. (2009) Am. J. Physiol. Gastrointest. Liver Physiol. 296, G1370-1381). The effect of Eact on mouse ileal smooth muscle contraction was investigated using an ex vivo intestinal preparation. […] Without wishing to be bound by theory, the constitutive TMEM16A activity in this ex vivo preparation could obscure Eact activity. To reveal Eact effects, atropine was first added to inhibit basal contractions. […] FIG. 8C summarizes data on contraction frequency, resting tone and maximal tone.

Consider `CCc1c(C)nc(SCC(=O)Nc2nc(-c3ccc(OC)cc3)cs2)[nH]c1=O` [T16Ainh-A01, reference compound], for which the “block of Eact-induced Cl^− current in IL-4 treated CF bronchial cells” value in assay [1] is given as “blocked”. Besides, the “spontaneous intestinal contractions at baseline” value in assay [2] is “inhibited”.
